Test results taken from ChEMBL document CHEMBL5338817, “Discovery of Exceptionally Potent, Selective, and Efficacious PROTAC Degraders of CBP and p300 Proteins” (J Med Chem, 2023).
Calls of active or inactive are those of the source. No cut-off for these calls is given here.

Assays:
CREB-binding protein [1] = biological target: T1, CREB-binding protein (Homo sapiens, UniProt Q92793); assay: Induction of CBP degradation in human RS4-11 cells at 10 nM incubated for 3 hrs by Proteomics analysis; format: cell-based
Target sequence in this assay (Q92793 2-2442 limits assumed): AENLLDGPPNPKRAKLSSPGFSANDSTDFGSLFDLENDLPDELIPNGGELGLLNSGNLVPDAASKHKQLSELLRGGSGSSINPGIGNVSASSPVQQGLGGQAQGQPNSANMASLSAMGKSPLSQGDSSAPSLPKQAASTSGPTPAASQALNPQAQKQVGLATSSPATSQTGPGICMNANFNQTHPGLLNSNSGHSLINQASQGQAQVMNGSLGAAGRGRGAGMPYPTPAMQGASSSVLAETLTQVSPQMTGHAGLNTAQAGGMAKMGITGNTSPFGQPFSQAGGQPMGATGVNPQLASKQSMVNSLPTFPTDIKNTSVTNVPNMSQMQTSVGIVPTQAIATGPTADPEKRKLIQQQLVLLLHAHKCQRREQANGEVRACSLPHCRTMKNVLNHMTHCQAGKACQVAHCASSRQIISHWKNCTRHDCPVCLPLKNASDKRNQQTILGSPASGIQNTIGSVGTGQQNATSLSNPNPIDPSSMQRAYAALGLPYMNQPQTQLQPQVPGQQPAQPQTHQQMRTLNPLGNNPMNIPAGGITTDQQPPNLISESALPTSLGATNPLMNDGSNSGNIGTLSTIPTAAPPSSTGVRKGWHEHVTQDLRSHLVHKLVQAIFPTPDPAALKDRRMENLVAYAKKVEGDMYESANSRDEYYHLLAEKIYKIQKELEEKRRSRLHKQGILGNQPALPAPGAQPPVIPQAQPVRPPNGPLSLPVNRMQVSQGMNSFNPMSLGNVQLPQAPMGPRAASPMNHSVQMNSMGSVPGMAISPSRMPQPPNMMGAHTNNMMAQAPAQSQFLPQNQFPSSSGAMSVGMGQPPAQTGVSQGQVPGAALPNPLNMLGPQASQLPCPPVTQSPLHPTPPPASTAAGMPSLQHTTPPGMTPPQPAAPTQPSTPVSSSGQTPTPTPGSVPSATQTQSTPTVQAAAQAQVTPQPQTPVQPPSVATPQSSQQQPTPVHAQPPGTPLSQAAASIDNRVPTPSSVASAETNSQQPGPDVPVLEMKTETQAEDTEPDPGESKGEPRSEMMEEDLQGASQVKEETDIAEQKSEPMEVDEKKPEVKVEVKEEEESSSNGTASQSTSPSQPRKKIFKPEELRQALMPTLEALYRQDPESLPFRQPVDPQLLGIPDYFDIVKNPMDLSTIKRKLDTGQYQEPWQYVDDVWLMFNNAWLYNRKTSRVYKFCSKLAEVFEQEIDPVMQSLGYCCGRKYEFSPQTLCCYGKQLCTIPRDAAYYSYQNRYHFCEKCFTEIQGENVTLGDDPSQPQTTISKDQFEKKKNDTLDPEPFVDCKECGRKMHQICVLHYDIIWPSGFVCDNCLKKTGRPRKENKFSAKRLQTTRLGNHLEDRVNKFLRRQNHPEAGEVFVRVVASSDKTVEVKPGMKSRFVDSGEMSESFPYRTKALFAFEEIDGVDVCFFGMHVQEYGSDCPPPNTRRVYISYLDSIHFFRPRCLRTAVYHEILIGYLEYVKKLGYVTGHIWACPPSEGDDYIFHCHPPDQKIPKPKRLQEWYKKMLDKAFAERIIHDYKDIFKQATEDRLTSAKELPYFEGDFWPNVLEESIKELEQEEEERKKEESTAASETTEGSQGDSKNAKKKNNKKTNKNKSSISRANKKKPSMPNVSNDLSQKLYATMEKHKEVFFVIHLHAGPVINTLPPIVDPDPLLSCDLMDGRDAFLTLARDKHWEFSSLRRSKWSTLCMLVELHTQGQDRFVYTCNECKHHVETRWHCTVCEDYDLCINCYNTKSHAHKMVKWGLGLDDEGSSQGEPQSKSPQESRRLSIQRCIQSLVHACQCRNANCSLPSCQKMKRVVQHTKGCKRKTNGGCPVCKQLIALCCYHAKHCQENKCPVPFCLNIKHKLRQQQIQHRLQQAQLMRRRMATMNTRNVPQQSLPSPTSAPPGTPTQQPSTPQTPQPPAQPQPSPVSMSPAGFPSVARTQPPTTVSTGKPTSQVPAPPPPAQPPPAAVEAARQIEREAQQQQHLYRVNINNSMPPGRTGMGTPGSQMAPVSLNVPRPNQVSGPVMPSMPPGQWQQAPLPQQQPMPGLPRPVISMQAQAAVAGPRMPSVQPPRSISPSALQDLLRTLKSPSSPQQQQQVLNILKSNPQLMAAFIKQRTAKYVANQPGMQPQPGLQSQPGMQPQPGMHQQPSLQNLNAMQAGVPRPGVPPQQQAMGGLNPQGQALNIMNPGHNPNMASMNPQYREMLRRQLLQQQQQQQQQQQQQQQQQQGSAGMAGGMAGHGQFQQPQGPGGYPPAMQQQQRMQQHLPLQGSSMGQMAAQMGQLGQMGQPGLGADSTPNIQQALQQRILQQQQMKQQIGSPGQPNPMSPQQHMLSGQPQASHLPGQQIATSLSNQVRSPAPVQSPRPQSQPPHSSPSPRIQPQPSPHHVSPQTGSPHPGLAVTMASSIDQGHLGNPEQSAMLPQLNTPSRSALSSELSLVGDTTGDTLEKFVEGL

Mus musculus [2] = assay: In vivo induction of p300 degradation in human RS4-11 cells xenografted in SCID mouse at 1 mg/kg, ip measured after 3 hrs by Western blot analysis; format: functional, organism-based
CREB-binding protein [3] = biological target: T1, CREB-binding protein; assay: Induction of CBP degradation in human RS4-11 cells incubated for 4 hrs by Western blot assay; format: cell-based
CREB-binding protein [4] = biological target: T1, CREB-binding protein; assay: Induction of CBP degradation in human RS4-11 cells assessed as maximal degradation incubated for 4 hrs by Western blot assay; format: cell-based
Target sequence in this assay (Q92793 2-2442 limits assumed): as above

[5] = biological target: T2, Histone acetyltransferase p300 (Homo sapiens, UniProt Q09472); assay: Induction of p300 degradation in human RS4-11 cells incubated for 4 hrs by Western blot assay; format: cell-based
[6] = biological target: T2, Histone acetyltransferase p300; assay: Induction of p300 degradation in human RS4-11 cells assessed as maximal degradation incubated for 4 hrs by Western blot assay relative to control; format: cell-based
RS4-11 [7] = assay: Cytotoxicity against human RS4-11 cells assessed as maximum inhibition of cell growth incubated for 4 days by cellTiter-Glo assay relative to control; format: functional; conditions: time 4 day
RS4-11 [8] = assay: Cytotoxicity against human RS4-11 cells assessed as inhibition of cell growth incubated for 4 days by cellTiter-Glo assay; format: functional, cell-based; conditions: RS4-11, 96 h
MV4-11 [9] = assay: Cytotoxicity against human MV4-11 cells assessed as maximum inhibition of cell growth incubated for 4 days by cellTiter-Glo assay relative to control; format: functional; conditions: time 4 day
MV4-11 [10] = assay: Cytotoxicity against human MV4-11 cells assessed as inhibition of cell growth incubated for 4 days by cellTiter-Glo assay; format: functional, cell-based; conditions: MV4-11, 96 h
HL-60 [11] = assay: Cytotoxicity against human HL-60 cells assessed as inhibition of cell growth incubated for 4 days by cellTiter-Glo assay; format: functional, cell-based; conditions: HL-60, 96 h
HL-60 [12] = assay: Cytotoxicity against human HL-60 cells assessed as maximum inhibition of cell growth incubated for 4 days by cellTiter-Glo assay relative to control; format: functional; conditions: time 4 day
MOLM-13 [13] = assay: Cytotoxicity against human MOLM-13 cells assessed as inhibition of cell growth incubated for 4 days by cellTiter-Glo assay; format: functional, cell-based; conditions: MOLM-13, 96 h
MOLM-13 [14] = assay: Cytotoxicity against human MOLM-13 cells assessed as maximum inhibition of cell growth incubated for 4 days by cellTiter-Glo assay relative to control; format: functional; conditions: time 4 day
[15] = biological target: T2, Histone acetyltransferase p300; assay: Induction of p300 degradation in human RS4-11 cells at 10 nM incubated for 3 hrs by Proteomics analysis; format: cell-based
[16] = biological target: Non-selective voltage-gated ion channel VDAC1 (Homo sapiens) (UniProt P21796); assay: Induction of VDAC1 degradation in human RS4-11 cells assessed as fold reduction in protein level at 10 nM incubated for 4 hrs by Western blot analysis; format: cell-based
[17] = biological target: Bromodomain-containing protein 4 (Homo sapiens) (UniProt O60885); assay: Induction of BRD4 degradation in human RS4-11 cells at 10 nM incubated for 4 hrs by Western blot analysis; format: cell-based
[18] = biological target: T3, Non-selective voltage-gated ion channel VDAC2 (Homo sapiens) (UniProt P45880); assay: Induction of VDAC2 degradation in human RS4-11 cells assessed as fold reduction in protein level at 10 nM incubated for 4 hrs by Western blot analysis; format: cell-based
T3 sequence (whole entry): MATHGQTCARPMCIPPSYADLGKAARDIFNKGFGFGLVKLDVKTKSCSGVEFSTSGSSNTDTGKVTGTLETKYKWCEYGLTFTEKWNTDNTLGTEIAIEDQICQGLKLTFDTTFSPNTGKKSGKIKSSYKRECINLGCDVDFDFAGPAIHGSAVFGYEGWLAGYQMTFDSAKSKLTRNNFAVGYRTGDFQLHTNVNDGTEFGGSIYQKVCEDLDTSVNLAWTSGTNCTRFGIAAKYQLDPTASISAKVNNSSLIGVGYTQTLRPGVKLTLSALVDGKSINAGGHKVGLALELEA

RS4-11 [19] = assay: Induction of cell cycle arrest in human RS4-11 cells assessed as accumulation at G1 phase at 1 uM measured after 8 hrs by PI staining based flow cytometric analysis; format: functional
RS4-11 [20] = assay: Downregulation of MYB gene expression in human RS4-11 cells at 1 nM measured after 8 hrs by qRT-PCR analysis; format: functional, cell-based
Mus musculus [21] = assay: In vivo induction of CBP degradation in human RS4-11 cells xenografted in SCID mouse at 1 mg/kg, ip measured after 3 hrs by Western blot analysis; format: functional, organism-based
RS4-11 [22] = assay: In vivo induction of p300 degradation in human RS4-11 cells xenografted in SCID mouse at 3 mg/kg, ip measured after 3 to 6 hrs by Western blot analysis; format: functional, organism-based; conditions: time 3-6 hrs
RS4-11 [23] = assay: In vivo induction of CBP degradation in human RS4-11 cells xenografted in SCID mouse at 3 mg/kg, ip measured after 3 to 6 hrs by Western blot analysis; format: functional, organism-based; conditions: time 3-6 hrs
Mus musculus [24] = assay: In vivo induction of CBP degradation in human RS4-11 cells xenografted in SCID mouse at 3 mg/kg, ip measured after 24 to 48 hrs by Western blot analysis; format: functional, organism-based; conditions: time 24-48 hrs
Mus musculus [25] = assay: In vivo induction of p300 degradation in human RS4-11 cells xenografted in SCID mouse at 3 mg/kg, ip measured after 24 to 48 hrs by Western blot analysis; format: functional, organism-based; conditions: time 24-48 hrs
[26] = Drug concentration in SCID mouse tumor xenografted with RS4-11 cells at 3 mg/kg, ip measured after 3 hrs by LC-HRMS method; format: ADME, organism-based, Neoplasm; conditions: read-out: Ct
[27] = Drug concentration in SCID mouse tumor xenografted with RS4-11 cells at 1 mg/kg, ip measured after 3 hrs by LC-HRMS method; format: ADME, organism-based, Neoplasm; conditions: read-out: Ct
[28] = Drug concentration in IP dosed SCID mouse tumor xenografted with RS4-11 cells measured after 24 to 48 hrs by LC-HRMS method; format: ADME, organism-based, Neoplasm; conditions: in vivo, time 24-48 hrs
RS4-11 [29] = assay: Antitumor activity against human RS4-11 cells xenografted in SCID mouse assessed as tumor growth inhibition at 1 mg/kg, ip administered twice a week on day 1 and day 4 for 2 weeks relative to control; format: functional; design: scale not given: the % may be the effect or the level left
RS4-11 [30] = assay: Antitumor activity against human RS4-11 cells xenografted in SCID mouse assessed as tumor growth inhibition at 3 mg/kg, ip administered once a week on day 1 for 2 weeks relative to control; format: functional; design: scale not given: the % may be the effect or the level left
[31] = Toxicity in SCID mouse xenografted with human RS4-11 cells assessed as body weight loss at 1 mg/kg, ip administered twice a week on day 1 and day 4 for 2 weeks relative to control; format: organism-based; conditions: in vivo, 336 h
[32] = Toxicity in SCID mouse xenografted with human RS4-11 cells assessed as body weight loss at 3 mg/kg, ip administered once a week on day 1 for 2 weeks relative to control; format: organism-based; conditions: in vivo, 336 h
RS4-11 [33] = assay: Antitumor activity against human RS4-11 cells xenografted in SCID mouse assessed as tumor growth inhibition at 0.3 mg/kg, ip administered five days a week for 2 weeks relative to control; format: functional; design: scale not given: the % may be the effect or the level left
RS4-11 [34] = assay: Antitumor activity against human RS4-11 cells xenografted in SCID mouse assessed as tumor growth inhibition at 1 mg/kg, ip administered thrice a week on day 1, 3 and 5 for 2 weeks relative to control; format: functional; design: scale not given: the % may be the effect or the level left
[35] = Toxicity in SCID mouse xenografted with human RS4-11 cells assessed as body weight loss at 0.3 mg/kg, ip administered five days a week for 2 weeks relative to control; format: organism-based; conditions: in vivo, 336 h
[36] = Toxicity in SCID mouse xenografted with human RS4-11 cells assessed as body weight loss at 1 mg/kg, ip administered three times a week for 2 weeks relative to control; format: organism-based; conditions: in vivo, 336 h
RS4-11 [37] = assay: Downregulation of MYC gene expression in human RS4-11 cells at 1 nM measured after 8 hrs by qRT-PCR analysis; format: functional, cell-based

T2 sequence (Q09472 whole entry): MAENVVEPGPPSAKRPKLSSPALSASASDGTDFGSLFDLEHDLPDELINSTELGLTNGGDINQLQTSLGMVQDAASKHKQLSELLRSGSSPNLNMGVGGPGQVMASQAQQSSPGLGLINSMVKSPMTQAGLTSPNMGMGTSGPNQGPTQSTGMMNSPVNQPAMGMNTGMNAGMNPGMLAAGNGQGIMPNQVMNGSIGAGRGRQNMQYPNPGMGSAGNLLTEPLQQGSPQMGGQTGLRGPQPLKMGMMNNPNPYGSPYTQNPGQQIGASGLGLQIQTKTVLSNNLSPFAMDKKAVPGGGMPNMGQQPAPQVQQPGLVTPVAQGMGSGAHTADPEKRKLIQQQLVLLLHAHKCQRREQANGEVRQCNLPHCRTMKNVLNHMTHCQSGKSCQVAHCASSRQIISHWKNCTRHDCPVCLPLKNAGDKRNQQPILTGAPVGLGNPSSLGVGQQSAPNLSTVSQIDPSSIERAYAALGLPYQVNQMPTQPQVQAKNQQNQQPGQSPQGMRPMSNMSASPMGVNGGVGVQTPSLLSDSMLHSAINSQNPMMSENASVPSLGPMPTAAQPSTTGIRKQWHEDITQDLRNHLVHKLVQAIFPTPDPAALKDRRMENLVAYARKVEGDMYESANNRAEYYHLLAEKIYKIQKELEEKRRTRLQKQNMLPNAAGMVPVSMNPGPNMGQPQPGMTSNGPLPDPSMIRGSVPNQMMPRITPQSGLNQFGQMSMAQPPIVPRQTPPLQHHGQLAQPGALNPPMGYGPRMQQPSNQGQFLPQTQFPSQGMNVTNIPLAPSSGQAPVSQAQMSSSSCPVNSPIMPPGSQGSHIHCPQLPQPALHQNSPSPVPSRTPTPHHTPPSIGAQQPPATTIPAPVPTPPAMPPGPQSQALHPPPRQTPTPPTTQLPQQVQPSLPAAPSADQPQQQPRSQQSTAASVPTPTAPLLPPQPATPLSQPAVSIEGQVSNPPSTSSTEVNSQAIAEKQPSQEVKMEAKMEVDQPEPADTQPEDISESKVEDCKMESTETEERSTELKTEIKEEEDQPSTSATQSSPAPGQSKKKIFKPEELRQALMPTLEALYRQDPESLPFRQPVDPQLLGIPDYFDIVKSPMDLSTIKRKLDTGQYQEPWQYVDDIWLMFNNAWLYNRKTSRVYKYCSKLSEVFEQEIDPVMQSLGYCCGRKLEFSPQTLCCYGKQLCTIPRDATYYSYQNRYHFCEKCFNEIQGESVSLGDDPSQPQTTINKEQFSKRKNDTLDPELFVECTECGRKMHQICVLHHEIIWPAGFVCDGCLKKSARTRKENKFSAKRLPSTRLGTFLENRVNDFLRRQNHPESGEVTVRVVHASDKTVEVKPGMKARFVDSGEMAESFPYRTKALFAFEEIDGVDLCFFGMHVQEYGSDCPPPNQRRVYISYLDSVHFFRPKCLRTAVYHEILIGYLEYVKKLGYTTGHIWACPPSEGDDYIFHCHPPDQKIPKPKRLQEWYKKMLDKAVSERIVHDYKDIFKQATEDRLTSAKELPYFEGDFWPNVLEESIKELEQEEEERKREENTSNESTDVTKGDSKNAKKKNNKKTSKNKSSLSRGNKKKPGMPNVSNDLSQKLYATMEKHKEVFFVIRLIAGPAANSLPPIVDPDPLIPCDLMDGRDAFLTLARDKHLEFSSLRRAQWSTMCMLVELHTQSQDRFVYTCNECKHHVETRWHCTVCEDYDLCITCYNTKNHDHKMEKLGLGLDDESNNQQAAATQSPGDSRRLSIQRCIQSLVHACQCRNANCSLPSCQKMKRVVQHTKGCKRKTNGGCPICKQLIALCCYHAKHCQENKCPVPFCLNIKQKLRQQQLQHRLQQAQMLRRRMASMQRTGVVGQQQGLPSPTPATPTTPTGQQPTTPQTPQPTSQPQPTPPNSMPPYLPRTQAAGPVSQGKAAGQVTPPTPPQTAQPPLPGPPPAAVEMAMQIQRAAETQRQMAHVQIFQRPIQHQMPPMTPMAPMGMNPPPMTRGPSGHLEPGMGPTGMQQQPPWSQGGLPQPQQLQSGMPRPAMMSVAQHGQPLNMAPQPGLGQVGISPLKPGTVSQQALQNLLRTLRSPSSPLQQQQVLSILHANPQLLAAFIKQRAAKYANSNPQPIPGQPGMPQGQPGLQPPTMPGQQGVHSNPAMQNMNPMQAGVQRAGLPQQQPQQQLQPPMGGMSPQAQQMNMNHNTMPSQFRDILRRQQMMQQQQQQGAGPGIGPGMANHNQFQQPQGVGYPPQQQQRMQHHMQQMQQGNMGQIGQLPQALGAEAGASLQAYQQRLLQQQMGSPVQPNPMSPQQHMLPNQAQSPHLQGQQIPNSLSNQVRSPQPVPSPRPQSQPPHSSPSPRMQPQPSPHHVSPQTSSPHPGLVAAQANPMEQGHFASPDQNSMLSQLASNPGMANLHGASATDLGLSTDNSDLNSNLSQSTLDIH
Sequence of Non-selective voltage-gated ion channel VDAC1 (Homo sapiens) (P21796 whole entry): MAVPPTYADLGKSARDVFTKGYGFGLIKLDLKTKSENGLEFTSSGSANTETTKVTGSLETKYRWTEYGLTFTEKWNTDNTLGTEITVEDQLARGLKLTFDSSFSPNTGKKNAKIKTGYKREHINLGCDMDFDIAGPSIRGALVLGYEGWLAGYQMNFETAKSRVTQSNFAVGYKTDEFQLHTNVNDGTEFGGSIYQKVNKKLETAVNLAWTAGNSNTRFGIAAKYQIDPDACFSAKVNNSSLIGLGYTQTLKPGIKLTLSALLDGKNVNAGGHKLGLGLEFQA

With CC(=O)N1CCc2c(c(-c3cccc4cc(-c5ccc(C(=O)NC6CCN(c7ccc8c(c7)CN(C7CCC(=O)NC7=O)C8=O)CC6)nc5)ncc34)nn2C2CCOCC2)C1 (configuration not stated) the Activity (CREB-binding protein [1]) was “Active”, the Activity (Mus musculus [2]) was “Active” and the EC50 (CREB-binding protein [3]) was 0.05 nM. The Emax (CREB-binding protein [4]) was 99%, the EC50 [5] was 0.2 nM and the Emax [6] was 99%. It also gave an Imax (RS4-11 [7]) of 94%, an IC50 (RS4-11 [8]) of 0.1 nM and an Imax (MV4-11 [9]) of 99%. For the same compound, the IC50 (MV4-11 [10]) was 0.04 nM, the IC50 (HL-60 [11]) was 0.54 nM and the Imax (HL-60 [12]) was 96%. For the same compound, the IC50 (MOLM-13 [13]) was 2.3 nM, the Imax (MOLM-13 [14]) was 96% and the Activity [15] was “Active”. For the same compound, the fold change (FC) [16] was 2, the Activity [17] was “inactive” and the fold change (FC) [18] was 2. The Activity (RS4-11 [19]) was “Active”, the Activity (RS4-11 [20]) was “Active” and the Activity (Mus musculus [21]) was “Active”. The Activity (RS4-11 [22]) was “Active”, the Activity (RS4-11 [23]) was “Active” and the Activity (Mus musculus [24]) was “inactive”. The Activity (Mus musculus [25]) was “inactive”, the concentration at 3 h [26] was 240 ng/g and the concentration at 3 h [27] was 57.5 ng/g. The Drug uptake [28] was “Not Active”, the Activity (RS4-11 [29]) was 81% and the Activity (RS4-11 [30]) was 81%. The Activity [31] was under 10%, the Activity [32] was under 10% and the Activity (RS4-11 [33]) was 68%. The Activity (RS4-11 [34]) was 68%, the Activity [35] was under 3% and the Activity [36] was under 3%. For the same compound, the Activity (RS4-11 [37]) was “Active”.
